Assay [1] addresses CtermHisTag-mEGFR Triple Mutant - C797S, L858R, T790M (Homo sapiens, UniProt P00533, C797S/L858R/T790M). In words: TR-FRET probe displacement assay, EGFR triple mutant. The class given is binding. Conditions: T790M 1.25 nM, probe 100 nM, 30 mins room temperature. A digest of the protocol:
(§1)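 Probe displacement from His-tagged wild-type or triple-mutant EGFR measured by TR-FRET (excitation 337 nm, emission 490/520 nm). Compounds spanned final concentrations from 3 to 100000 nM over ten points; technical replicates, repeated twice biologically.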

The target of assay [2] is CtermHisTag-mEGFR Wild type (Homo sapiens, UniProt P00533). In words: TR-FRET probe displacement assay, EGFR wild type. The class given is binding. Conditions: EGFR wild type 1.25 nM, probe 100 nM, 30 mins room temperature. A digest of the protocol:
as §1
On the technique in general: Time-resolved FRET reads energy transfer from a long-lived donor to a nearby acceptor.

In assay [3] the target is T1, Phospho-EGFR (Tyr1068) in H1975 cells (Homo sapiens, UniProt P00533, L858R/T790M).
T1 construct: host or cells: H1975
T1 sequence (P00533 25-1210 T790M/L858R): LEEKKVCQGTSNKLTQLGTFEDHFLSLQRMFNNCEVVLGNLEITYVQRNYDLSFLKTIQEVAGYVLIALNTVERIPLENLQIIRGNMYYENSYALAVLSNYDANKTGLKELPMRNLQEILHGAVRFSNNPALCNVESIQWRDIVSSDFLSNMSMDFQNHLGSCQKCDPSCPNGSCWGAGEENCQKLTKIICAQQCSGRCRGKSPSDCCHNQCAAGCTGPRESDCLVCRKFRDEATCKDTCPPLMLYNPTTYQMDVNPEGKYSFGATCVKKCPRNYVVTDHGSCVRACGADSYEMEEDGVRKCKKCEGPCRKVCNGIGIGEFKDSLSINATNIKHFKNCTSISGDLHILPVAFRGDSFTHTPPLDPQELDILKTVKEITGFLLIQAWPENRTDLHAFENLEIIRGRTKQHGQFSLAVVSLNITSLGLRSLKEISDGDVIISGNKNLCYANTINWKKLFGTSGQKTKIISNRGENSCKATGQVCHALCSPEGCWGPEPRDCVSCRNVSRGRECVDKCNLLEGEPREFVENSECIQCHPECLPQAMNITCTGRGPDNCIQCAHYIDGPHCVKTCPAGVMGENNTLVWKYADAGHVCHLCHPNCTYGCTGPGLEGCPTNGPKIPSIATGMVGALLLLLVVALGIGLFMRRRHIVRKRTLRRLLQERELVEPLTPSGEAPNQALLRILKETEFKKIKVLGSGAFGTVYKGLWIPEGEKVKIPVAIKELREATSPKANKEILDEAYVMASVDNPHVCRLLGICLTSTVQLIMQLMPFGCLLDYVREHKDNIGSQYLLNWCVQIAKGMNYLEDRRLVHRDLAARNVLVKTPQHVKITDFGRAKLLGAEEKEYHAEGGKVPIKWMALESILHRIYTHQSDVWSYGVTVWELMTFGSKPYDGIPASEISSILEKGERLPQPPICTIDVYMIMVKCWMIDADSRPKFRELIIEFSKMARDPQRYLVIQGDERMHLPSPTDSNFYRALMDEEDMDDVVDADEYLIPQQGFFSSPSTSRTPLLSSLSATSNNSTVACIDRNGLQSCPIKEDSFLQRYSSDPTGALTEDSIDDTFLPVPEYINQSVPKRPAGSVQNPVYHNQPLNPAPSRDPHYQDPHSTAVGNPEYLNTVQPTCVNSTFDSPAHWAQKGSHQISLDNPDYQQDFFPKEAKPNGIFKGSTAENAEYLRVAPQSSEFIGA
In words: HTRF pEGFR/total EGFR assay in H1975 cells. The class given is cell-based. Conditions: compound 3 hours, ratio pEGFR/total EGFR. A digest of the protocol: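 H1975 cells (EGFR L858R/T790M) adhered 24 h, then compound-treated for 3 h in duplicate, 0.1% DMSO final. Lysates read by HTRF at 665/620 nm for phospho-Tyr1068 and total EGFR. Value is pEGFR/total EGFR ratio as % of 0 uM control.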

For assay [4], the target named is T2, Phospho-EGFR (Tyr1068) in H1975 C797S cells (Homo sapiens, UniProt P00533, C797S/L858R/T790M).
T2 construct: endogenous in cells; host or cells: H1975 C797S (CRISPR-edited in house from ATCC CRL-5908)
T2 sequence (P00533 25-1210 T790M/C797S/L858R): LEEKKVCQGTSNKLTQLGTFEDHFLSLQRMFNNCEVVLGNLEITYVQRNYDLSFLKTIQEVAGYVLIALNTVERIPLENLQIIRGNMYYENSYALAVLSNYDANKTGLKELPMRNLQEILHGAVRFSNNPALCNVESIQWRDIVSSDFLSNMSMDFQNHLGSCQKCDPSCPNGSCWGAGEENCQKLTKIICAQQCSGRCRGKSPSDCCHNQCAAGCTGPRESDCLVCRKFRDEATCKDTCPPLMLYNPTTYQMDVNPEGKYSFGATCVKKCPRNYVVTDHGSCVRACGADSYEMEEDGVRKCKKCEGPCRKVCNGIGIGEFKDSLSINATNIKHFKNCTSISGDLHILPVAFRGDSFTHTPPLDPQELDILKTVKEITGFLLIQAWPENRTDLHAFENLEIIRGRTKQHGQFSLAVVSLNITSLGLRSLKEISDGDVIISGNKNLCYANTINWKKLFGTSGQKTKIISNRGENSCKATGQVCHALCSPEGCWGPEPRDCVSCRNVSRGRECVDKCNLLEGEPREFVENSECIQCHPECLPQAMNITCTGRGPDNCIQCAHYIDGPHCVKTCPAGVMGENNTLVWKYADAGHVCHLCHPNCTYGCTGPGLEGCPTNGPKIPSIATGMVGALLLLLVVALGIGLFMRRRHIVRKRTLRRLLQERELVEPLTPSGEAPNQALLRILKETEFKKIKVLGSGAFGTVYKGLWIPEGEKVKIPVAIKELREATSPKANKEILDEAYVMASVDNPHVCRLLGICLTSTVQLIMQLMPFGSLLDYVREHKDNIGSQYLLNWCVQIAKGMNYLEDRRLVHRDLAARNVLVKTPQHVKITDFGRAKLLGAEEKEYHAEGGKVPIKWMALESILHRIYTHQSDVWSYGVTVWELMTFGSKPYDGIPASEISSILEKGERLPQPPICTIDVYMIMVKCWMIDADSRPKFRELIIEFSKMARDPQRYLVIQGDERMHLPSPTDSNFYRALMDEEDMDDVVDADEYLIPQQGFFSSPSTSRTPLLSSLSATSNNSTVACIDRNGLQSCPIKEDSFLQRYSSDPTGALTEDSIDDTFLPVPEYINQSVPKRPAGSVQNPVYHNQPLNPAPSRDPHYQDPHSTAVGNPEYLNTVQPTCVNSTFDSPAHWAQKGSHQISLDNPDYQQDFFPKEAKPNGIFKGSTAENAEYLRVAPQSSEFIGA
In words: HTRF pEGFR/total EGFR assay in H1975 C797S cells. The class given is cell-based. Conditions: H1975 C797S cells (CRISPR), compound 3 hours, ratio pEGFR/total EGFR. A digest of the protocol: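 Phospho-EGFR (Tyr1068) and total EGFR were measured by HTRF (665 and 620 nm) in lysates of NGS-validated H1975 EGFR C797S cells. Cells were dosed for 3 h in duplicate, 0.1% DMSO final. Read-out is the pEGFR/total EGFR ratio relative to the 0 uM control, as percent.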

For assay [5], the target named is T3, Phospho-EGFR (Tyr1068) in A431 cells (Homo sapiens, UniProt P00533).
T3 construct: endogenous in cells; host or cells: A431
T3 sequence (P00533 25-1210): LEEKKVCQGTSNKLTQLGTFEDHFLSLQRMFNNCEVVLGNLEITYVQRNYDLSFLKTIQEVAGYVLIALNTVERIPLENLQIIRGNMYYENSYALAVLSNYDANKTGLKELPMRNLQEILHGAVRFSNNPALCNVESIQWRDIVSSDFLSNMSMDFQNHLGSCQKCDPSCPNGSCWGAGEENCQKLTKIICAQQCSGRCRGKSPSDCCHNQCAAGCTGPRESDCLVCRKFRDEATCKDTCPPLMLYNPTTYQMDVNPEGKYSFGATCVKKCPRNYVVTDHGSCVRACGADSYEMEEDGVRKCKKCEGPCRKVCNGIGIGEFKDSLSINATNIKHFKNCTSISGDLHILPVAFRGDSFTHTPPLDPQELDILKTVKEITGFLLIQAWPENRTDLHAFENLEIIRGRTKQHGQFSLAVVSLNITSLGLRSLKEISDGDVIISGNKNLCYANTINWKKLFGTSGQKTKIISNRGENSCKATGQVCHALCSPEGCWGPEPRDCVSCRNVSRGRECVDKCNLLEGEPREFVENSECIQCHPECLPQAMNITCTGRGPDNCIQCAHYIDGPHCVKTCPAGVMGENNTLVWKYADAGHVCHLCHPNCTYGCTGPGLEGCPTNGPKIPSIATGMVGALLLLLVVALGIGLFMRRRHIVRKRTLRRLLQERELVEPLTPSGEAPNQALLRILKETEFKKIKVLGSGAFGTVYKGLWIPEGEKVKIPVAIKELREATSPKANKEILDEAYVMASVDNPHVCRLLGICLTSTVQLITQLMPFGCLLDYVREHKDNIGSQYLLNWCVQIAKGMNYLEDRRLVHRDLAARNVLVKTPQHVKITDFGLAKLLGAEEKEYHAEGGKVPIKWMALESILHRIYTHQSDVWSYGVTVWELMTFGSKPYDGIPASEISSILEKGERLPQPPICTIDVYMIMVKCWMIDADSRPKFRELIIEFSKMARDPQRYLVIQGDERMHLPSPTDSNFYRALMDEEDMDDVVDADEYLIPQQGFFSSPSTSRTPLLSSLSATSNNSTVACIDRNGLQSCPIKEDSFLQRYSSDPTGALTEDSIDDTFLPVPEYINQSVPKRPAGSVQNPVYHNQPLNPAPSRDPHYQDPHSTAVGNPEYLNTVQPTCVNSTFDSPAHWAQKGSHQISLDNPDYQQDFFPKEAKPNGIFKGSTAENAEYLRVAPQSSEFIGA
Kind of assay: HTRF pEGFR/total EGFR assay in A431 cells (EGF stimulated). The class given is cell-based. As to conditions: compound 2.5 hours then 100 ng/ml EGF 30 mins, ratio pEGFR/total EGFR. A digest of the protocol:
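HTRF readout (665 and 620 nm) of Tyr1068-phosphorylated versus total EGFR in lysed A431 cells, expressed as ratio relative to 0uM control (%). Compound exposure 2.5 h in duplicate at 0.1% DMSO, with 100 ng/ml EGF added for 30 min.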

pIC50: −log10 of the molar value.

Sequence of CtermHisTag-mEGFR Wild type (P00533 25-1210): as above

By pIC50 is commonly meant the negative decadic logarithm of the IC50, by convention in mol/L. For `C#Cc1c(C)c(OCC2CCCC2)nc2nc(Nc3ccc(N4CCN(C)CC4)cc3)ncc12` [Example 23, 7-(cyclopentylmethoxy)-5-ethynyl-6-methyl-N-[4-(4-methylpiperazin-1-yl)phenyl]pyrido[2,3-d]pyrimidin-2-amine], the pIC50 is 6.00 to 7.00 in assay [1]; < 5.00 in assay [2]; < 5.52 in assay [3]; < 5.52 in assay [4]; < 5.52 in assay [5].
`C#Cc1cc(N2C(=O)N(C)CC23CCCC3)nc2nc(Nc3ccc(N4CCN(C5COC5)CC4)cc3)ncc12` [Example 104, 1-[5-Ethynyl-2-([4-[4-(oxetan-3-yl)piperazin-1-yl]phenyl]amino)pyrido[2,3-d]pyrimidin-7-yl]-3-methyl-1,3-diazaspiro[4.4]nonan-2-one]: the pIC50 is 7.00 to 7.70 in assay [1]; > 6.00 in assay [2]; 5.52 to 6.00 in assay [3]; 5.52 to 6.00 in assay [4]; < 5.52 in assay [5].
In the case of `C#Cc1cc(NC(=O)N(C)C2CCCC2)nc2nc(Nc3ccc(N4CCN(C)CC4)cc3)ncc12` [Example 74, 3-Cyclopentyl-1-(5-ethynyl-2-{[4-(4-methylpiperazin-1-yl)phenyl]amino}pyrido[2,3-d]pyrimidin-7-yl)-3-methylurea], the pIC50 in assay [1] was 6.00 to 7.00; in assay [2], 5.00 to 6.00; in assay [3] it was < 5.52; in assay [4], < 5.52; in assay [5], < 5.52.
As to `C#Cc1cc(NC(=O)NC2CCCC2)nc2nc(Nc3ccc(N(C)C(=O)CN4CCC4)cc3)ncc12` [Example 78, 2-(Azetidin-1-yl)-N-[4-((7-[(cyclopentylcarbamoyl)amino]-5-ethynyl)pyrido[2,3-d]pyrimidin-2-ylamino)phenyl]-N-methylacetamide], the pIC50 is 6.00 to 7.00 in assay [1]; 5.00 to 6.00 in assay [2]; < 5.52 in assay [3]; < 5.52 in assay [4]; < 5.52 in assay [5].
Consider `C#Cc1cc(NC(=O)NC2CN(C(C)=O)C2)nc2nc(Nc3ccc(N4CCN(C)CC4)cc3)ncc12` [Example 54], for which the negative logarithm of the IC50 (pIC50) in assay [1] was > 7.70; in assay [2], 5.00 to 6.00; in assay [3], < 5.52; in assay [4] it was < 5.52; in assay [5], < 5.52.
As for `C#Cc1cc(NC(=O)NCc2ccccc2)nc2nc(Nc3ccc(N4CCN(C)CC4)cc3)ncc12` [Example 39, 1-benzyl-3-(5-ethynyl-2-{[4-(4-methylpiperazin-1-yl)phenyl]amino}pyrido[2,3-d]pyrimidin-7-yl)urea], the pIC50 in assay [1] is > 7.70; in assay [2], > 6.00; in assay [3] it was > 6.30; in assay [4] it was > 6.30; in assay [5], < 5.52.
Consider `C#Cc1cc(NC(=O)NC2CCCC2)nc2nc(Nc3ccccc3N3CCC(CS(C)(=O)=O)CC3)ncc12` [Example 90, 3-Cyclopentyl-1-[5-ethynyl-2-({2-[4-(methanesulfonylmethyl)piperidin-1-yl]phenyl}amino)pyrido[2,3-d]pyrimidin-7-yl]urea], for which the pIC50 in assay [1] was 4.30 to 6.00; in assay [2], < 5.00; in assay [3], < 5.52; in assay [4], < 5.52; in assay [5] it was < 5.52.
Regarding `C#Cc1cc(OC)nc2nc(Nc3ccc(N4CCN(C)CC4)c(NCC4CCC4)c3)ncc12` [Example 10, N^3-(cyclobutylmethyl)-N^1-{5-ethynyl-7-methoxypyrido[2,3-d]pyrimidin-2-yl}-4-(4-methylpiperazin-1-yl)benzene-1,3-diamine], the pIC50 in assay [1] was 7.00 to 7.70; in assay [2], 5.00 to 6.00; in assay [3] it was < 5.52; in assay [4] it was < 5.52; in assay [5], < 5.52.
As to `C#Cc1cc(NC(=O)NC2CCCC2)nc2nc(Nc3ccc(S(=O)(=O)N(C)CCN(C)C)cc3)ncc12` [Example 84], the pIC50 was > 7.70 in assay [1]; > 6.00 in assay [2]; > 6.30 in assay [3]; > 6.30 in assay [4]; < 5.52 in assay [5].
In the case of `C#Cc1cc(NC(=O)NCC2COC2)nc2nc(Nc3ccc(N4CCN(C)CC4)cc3)ncc12` [Example 55, 1-(5-ethynyl-2-{[4-(4-methylpiperazin-1-yl)phenyl]amino}pyrido[2,3-d]pyrimidin-7-yl)-3-(oxetan-3-ylmethyl)urea], the pIC50 was > 7.70 in assay [1]; > 6.00 in assay [2]; > 6.30 in assay [3]; > 6.30 in assay [4]; < 5.52 in assay [5].
With `C#Cc1cc(Nc2nccn2C)nc2nc(Nc3ccc(N4CCN(C)CC4)cc3)ncc12` [Example 26, 5-ethynyl-N^7-(1-methylmidazol-2-yl)-N^2-[4-(4-methylpiperazin-1-yl)phenyl]pyrido[2,3-d]pyrimidine-2,7-diamine], the pIC50 in assay [1] was 7.00 to 7.70; in assay [2], 5.00 to 6.00; in assay [3] it was 6.00 to 6.30; in assay [4], 5.52 to 6.00; in assay [5], < 5.52.
The like results for `C#Cc1cc(NC(=O)Cc2ccccc2)nc2nc(Nc3ccc(N4CCN(C)CC4)cc3)ncc12` [Example 30, N-(5-ethynyl-2-{[4-(4-methylpiperazin-1-yl)phenyl]amino}pyrido[2,3-d]pyrimidin-7-yl)-2-phenylacetamide] were, in that order, > 7.70, 5.00 to 6.00, 5.52 to 6.00, 5.52 to 6.00 and < 5.52.
Turning to `C#Cc1cc(NC(=O)N[C@@H]2CCN(C(C)=O)C2)nc2nc(Nc3ccc(N4CCN(C)CC4)cc3)ncc12` [Example 52], the pIC50 in assay [1] was 7.00 to 7.70; in assay [2], 5.00 to 6.00; in assay [3], < 5.52; in assay [4], < 5.52; in assay [5], < 5.52.
With `C#Cc1c(C)c(NC(=O)NC2CCCC2)nc2nc(Nc3ccc(N4CCN(C)CC4)cc3)ncc12` [Example 72, 3-Cyclopentyl-1-(5-ethynyl-6-methyl-2-{[4-(4-methylpiperazin-1-yl)phenyl]amino}pyrido[2,3-d]pyrimidin-7-yl)urea], the pIC50 in assay [1] is > 7.70; in assay [2], > 6.00; in assay [3], 6.00 to 6.30; in assay [4], 5.52 to 6.00; in assay [5], < 5.52.
In the case of `C#Cc1cc(NC(=O)NC2(C(F)(F)F)CCCC2)nc2nc(Nc3ccc(N4CCN(C)CC4)cc3)ncc12` [Example 60, 1-(5-ethynyl-2-((4-(4-methylpiperazin-1-yl)phenyl)amino)pyrido[2,3-d]pyrimidin-7-yl)-3-(1-(trifluoromethyl)cyclopentyl)urea], the pIC50 was > 7.70 in assay [1]; > 6.00 in assay [2]; > 6.30 in assay [3]; > 6.30 in assay [4]; > 6.30 in assay [5].
For the molecule `C#Cc1cc(NC(=O)NC2CCCC2)nc2nc(Nc3ccc(N4CCN(C5COC5)CC4)cc3)ncc12` [Example 76, 3-Cyclopentyl-1-[5-ethynyl-2-({4-[4-(oxetan-3-yl)piperazin-1-yl]phenyl}amino)pyrido[2,3-d]pyrimidin-7-yl]urea], the pIC50 was > 7.70 in assay [1]; > 6.00 in assay [2]; > 6.30 in assay [3]; > 6.30 in assay [4]; > 6.30 in assay [5].
Take `C#Cc1cc(NC(=O)NC2CCC2)nc2nc(Nc3ccc(N4CCN(C)CC4)cc3)ncc12` [Example 41, 3-cyclobutyl-1-(5-ethynyl-2-{[4-(4-methylpiperazin-1-yl)phenyl]amino}pyrido[2,3-d]pyrimidin-7-yl)urea]: the negative-log IC50 (pIC50) in assay [1] was > 7.70; in assay [2], > 6.00; in assay [3], > 6.30; in assay [4], > 6.30; in assay [5], 5.52 to 6.00.
In the case of `C#Cc1cc(Nc2ccccc2)nc2nc(Nc3ccc(N(C)CCN(C)C)cc3)ncc12` [Example 25, N^2-(4-{[2-(dimethylamino)ethyl](methyl)amino}phenyl)-5-ethynyl-N^7-phenylpyrido[2,3-d]pyrimidine-2,7-diamine], the pIC50 in assay [1] is 4.30 to 6.00; in assay [2], < 5.00; in assay [3], < 5.52; in assay [4] it was < 5.52; in assay [5], < 5.52.

For the origin of these results see patent US20260176265A1 (Cancer Research Technology Limited, priority 2022, published 2026).
